Measurements reported in US20250163057A1, “DCN-1 MODULATING COMPOUNDS AND METHODS OF USE THEREOF” (Cellarity, Inc., priority 2023, published 2025).
Like-named read-outs stand apart in the source and are kept apart here.

Experiments:
[1] = tested on: Cullin-3 (CUL3) neddylation; assay: AlphaLISA assay for Cullin-3 (CUL3) neddylation in TF 1 cells; assay type: cell-based; details: 3 hours treatment
Method: An AiphaLISA assay was performed to evaluate the ability of the compounds to suppress neddylation, which is downstream from DCN-1 and DCN-2. A stronger inhibition of DCN-1 and DCN-2 is expected to result in a suppression of neddylation as shown by a lower AlphaLISA signal. The AlphaLISA assay for detecting Cullin-3 (CUL3) neddylation was performed according to manufacturer instructions (Revvity, Hopkinton, MA). Briefly, TF 1 cells (ATCC) were plated in Iscove's Modified Dulbecco's Medium (IMIDM) without supplements in 384-well plates. These cells were treated with […] for 3 hours before lysing them with AlphaLISA lysis buffer, 5× (Revvity). To detect the level of CUL3 neddylation, biotinylated anti-NEDD8 antibody, was added followed by AlphaLISA Acceptor beads conjugated with anti-CUL3 antibody. After overnight incubation, Streptavidin-coated Alpha Donor beads were added and incubated for 1 hour. The AlphaLISA signal was then read on a VICTOR Nivo Multimode Microplate Reader (Revvity, Hopkinton, MA). The positive control was 1 μM DI-1548, which is reported to reduce CUL3 neddylation, also referred to as C-1 in Example 41 (Zhou et al. Nature Comm. 2021). The neddylation signal was normalized such that the percent inhibition is 0% for vehicle control and 100% for positive control. The dose-response curves were fitted with the Hill equation to obtain IC50 values (Graphpad Prism).

[2] = biological target: DCN1 (DCUND1) protein PONY domain (Homo sapiens (Human), UniProt Q96GG9); assay: TR-FRET assay, DCN1 binding with FAM-labeled probe
Outline: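 Binding was read as the TR-FRET ratio between a FAM-tagged inhibitor probe and Tb-labeled biotinylated E. coli-expressed DCN1 PONY domain, measured 1, 5 and 24 h after compound addition. The two setups used 5 nM protein/20 nM FAM-probe or 0.31 nM protein/900 nM total probe (100 nM labeled), in TritonX buffer with 200 mM NaCl.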

[3] = 24 hr after treatment with compound, read-out: TR FRET IC50 24 hr
[4] = TR FRET IC50 1 hr (nM), 1 hr after treatment with compound

DCN1 (DCUND1) protein PONY domain, sequence (Q96GG9 60-248): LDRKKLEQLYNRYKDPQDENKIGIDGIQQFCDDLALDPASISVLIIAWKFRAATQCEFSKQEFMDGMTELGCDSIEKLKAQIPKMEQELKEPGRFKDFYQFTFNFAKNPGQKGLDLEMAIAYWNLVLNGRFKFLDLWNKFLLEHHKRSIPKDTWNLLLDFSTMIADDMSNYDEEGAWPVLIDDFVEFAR

| Compound | IC50 ([1]; Homo sapiens, TF-1, 3 h) [nM] | IC50 [2, 3] [nM] | IC50 [2, 4] [nM] | IC50 [1] [nM] | IC50 ([1]; Homo sapiens) [nM] | IC50 ([2]; read-out: TR FRET IC50 1 hr, 1 hr after treatment with compound) [nM] |
| --- | --- | --- | --- | --- | --- | --- |
| CCN1C(=O)[C@@H](NC(=O)c2cccc(C(F)(F)F)c2)[C@@H](c2ccc(F)cc2)c2c(CN(CC#N)C(C)=O)nn(-c3ccccc3)c21 [Compound I-542, N-((4S,5S)-3-((N-(cyanomethyl)acetamido)methyl)-7-ethyl-4-(4-fluorophenyl)-6-oxo-1-phenyl-4,5,6,7-tetrahydro-1H-pyrazolo[3,4-b]pyridin-5-yl)-3-(trifluoromethyl)benzamide] | 100 to 1000 | 200 to 1000 | 1000 to 3000 |  |  |  |
| CCN1C(=O)[C@H](NC(=O)c2cccc(C(F)(F)F)c2)[C@@H](c2ccc(F)cc2)c2c(C3(N(C)C#N)CC3)nn(-c3ccccc3)c21 (racemic) [Compound I-76] | > 1000 | 1000 to 3000 | 1000 to 3000 |  |  |  |
| CCN1C(=O)[C@@H](NC(=O)c2cccc3c2CCCO3)[C@@H](C2CC2)c2c(C(=O)N3[C@H](C#N)C[C@H]4C[C@H]43)nn(C3CCOCC3)c21 [Compound I-633] | 100 to 1000 | 200 to 1000 | 1000 to 3000 |  |  |  |
| CCCn1nc(C(=O)N(CC#N)C2CC2)c2c1N(CC)C(=O)[C@H](NC(=O)c1cccc(C(F)(F)F)c1)[C@@H]2c1ccc(F)cc1 [Compound I-572] | > 1000 | 1000 to 3000 | 1000 to 3000 |  |  |  |
| CCN1C(=O)[C@@H](NC(=O)c2cccc(C(F)(F)F)c2)[C@@H](c2ccc(F)cc2)c2c(C(=O)N3[C@H](C#N)C[C@H]4C[C@H]43)nn([C@@H]3CCOC3)c21 (single isomer, unassigned) [Compound I-583] |  | 1000 to 3000 | 1000 to 3000 | > 1000 |  |  |
| CCN1C(=O)[C@H](NC(=O)c2cccc(C(F)(F)F)c2)[C@H](c2ccc(C)cc2)c2c(C(=O)N(C)CC#N)nn(C3CC3)c21 [Compound I-494] | > 1000 | 1000 to 3000 | 1000 to 3000 |  |  |  |
| CCN1C(=O)[C@H](NC(=O)c2cccc(C(F)(F)F)c2)[C@H](C2CC2)c2c(C(=O)N(C)C(C)C#N)nn(C3CCOCC3)c21 (mixture of isomers) [Compound I-415] | > 1000 | 1000 to 3000 | 1000 to 3000 |  |  |  |
| CCN1C(=O)[C@@H](NC(=O)c2ccc3nonc3c2)[C@@H](C2CC2)c2c(C(=O)N3[C@H](C#N)C[C@H]4C[C@H]43)nn(C3CCOCC3)c21 [Compound I-668] | 100 to 1000 | 1000 to 3000 | 1000 to 3000 |  |  |  |
| CCN1C(=O)[C@@H](NC(=O)c2ccc3ncoc3c2)[C@@H](C2CC2)c2c(C(=O)N3[C@H](C#N)C[C@H]4C[C@H]43)nn(C3CCOCC3)c21 [Compound I-564] | > 1000 | 1000 to 3000 | 1000 to 3000 |  |  |  |
| CCN1C(=O)[C@@H](NC(=O)c2cccc3c2OCC3)[C@@H](C2CC2)c2c(C(=O)N3[C@H](C#N)C[C@H]4C[C@H]43)nn(C3CCOCC3)c21 [Compound I-445] |  | ≤ 200 |  |  | ≤ 100 | ≤ 200 |
| CCN1C(=O)[C@H](NC(=O)c2cccc(C(F)(F)F)c2)[C@H](c2ccc(F)cc2)c2c(C(=O)N3CCC[C@H]3C#N)nn(-c3cccc(OCCN4CCC5(CC4)COC5)c3)c21 [Compound I-616] | > 1000 | 1000 to 3000 | 1000 to 3000 |  |  |  |
| CCN1C(=O)[C@@H](NC(=O)c2cccc3[nH]cnc23)[C@@H](C2CC2)c2c(C(=O)N3[C@H](C#N)C[C@H]4C[C@H]43)nn(C3CCOCC3)c21 [Compound I-446] | > 1000 | 1000 to 3000 | 1000 to 3000 |  |  |  |
| CCN1C(=O)[C@H](NC(=O)c2cccc(C(F)(F)F)c2)[C@H](c2ccc(F)cc2)c2c(C(=O)N3CCNC[C@@H]3C#N)nn(-c3ccccc3)c21 [Compound I-534] | > 1000 | 1000 to 3000 | 1000 to 3000 |  |  |  |
| CCN1C(=O)[C@H](NC(=O)c2cccc(C(F)(F)F)c2)[C@H](c2ccc(F)cc2)c2c(C(=O)N3CCC[C@H]3C#N)nn(-c3cccc(OCCCN4CCC5(CC4)COC5)c3)c21 [Compound I-581] | > 1000 | 200 to 1000 | 1000 to 3000 |  |  |  |
